Consider one compound from ChEMBL document CHEMBL5370681, “Lipid Tales: Optimizing Arylomycin Membrane Anchors” (ACS Med Chem Lett, 2023).

The test system of series [1] is Escherichia coli. The series is described as follows: Antibacterial activity against Escherichia coli 25922 incubated for 18 hrs in presence of 50% mouse serum by two-fold serial dilution method. It is filed as functional.
Series [2] deals with Signal peptidase I (Escherichia coli K-12) (UniProt P00803). The series is described as follows: Inhibition of LepB in Escherichia coli IMP assessed as antibacterial activity by measuring reduction in bacterial growth incubated for 18 hrs by two-fold serial dilution method.
Series [3] concerns Escherichia coli. Nature of the series: Antibacterial activity against Escherichia coli 25922 incubated for 18 hrs by two-fold serial dilution method. It is filed as functional.
The nature of series [4]: Unbound fraction in human plasma at 5 uM measured after 24 hrs by LC-MS/MS analysis. Type of series: ADME, cell-free.

Values after ≈ are worked out from the molar mass of the structure shown.

Signal peptidase I (Escherichia coli K-12), sequence (P00803 whole entry): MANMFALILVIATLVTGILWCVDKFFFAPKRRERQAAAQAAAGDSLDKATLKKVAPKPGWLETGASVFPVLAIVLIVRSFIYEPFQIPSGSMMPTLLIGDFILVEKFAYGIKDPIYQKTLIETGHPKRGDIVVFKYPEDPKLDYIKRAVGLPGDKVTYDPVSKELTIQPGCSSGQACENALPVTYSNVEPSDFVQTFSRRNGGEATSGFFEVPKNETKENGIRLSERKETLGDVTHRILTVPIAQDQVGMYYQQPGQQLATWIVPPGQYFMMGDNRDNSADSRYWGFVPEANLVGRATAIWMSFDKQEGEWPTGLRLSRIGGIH

Usually fraction unbound stands for free concentration divided by total concentration. Low readings indicate extensive binding, high ones weak binding. Consider `Cc1cc(-c2ccc(C(F)(F)F)cc2)ccc1C(=O)N[C@@H](CCN)C(=O)N(C)[C@@H]1C(=O)N[C@@H](C)C(=O)N[C@H](C(=O)NCC#N)Cc2ccc(OCCN)c(c2)-c2cc1ccc2OCCN`, for which the results for the MIC in series [1], in series [2] and in series [3] were 1.4 µg/mL, 0.014 µg/mL (≈ 0.0156 µM) and 0.41 µg/mL (≈ 0.456 µM), respectively. For the same compound, the fraction unbound at 24 h, 5 µM in series [4] amounted to 0.078.
